Measured values as given in patent US7129269B2, “Compound” (Sterix Ltd., priority 1996, dated 2006).
Where “and” joins values, the source holds several entries; their conditions need not be identical. Equal values may be shown once.

Legend:
[1] = target: T1, aromatase (Homo sapiens, UniProt P11511); assay: Aromatase inhibition in placental microsomes, tritiated water release assay
T1 sequence (P11511 1-503): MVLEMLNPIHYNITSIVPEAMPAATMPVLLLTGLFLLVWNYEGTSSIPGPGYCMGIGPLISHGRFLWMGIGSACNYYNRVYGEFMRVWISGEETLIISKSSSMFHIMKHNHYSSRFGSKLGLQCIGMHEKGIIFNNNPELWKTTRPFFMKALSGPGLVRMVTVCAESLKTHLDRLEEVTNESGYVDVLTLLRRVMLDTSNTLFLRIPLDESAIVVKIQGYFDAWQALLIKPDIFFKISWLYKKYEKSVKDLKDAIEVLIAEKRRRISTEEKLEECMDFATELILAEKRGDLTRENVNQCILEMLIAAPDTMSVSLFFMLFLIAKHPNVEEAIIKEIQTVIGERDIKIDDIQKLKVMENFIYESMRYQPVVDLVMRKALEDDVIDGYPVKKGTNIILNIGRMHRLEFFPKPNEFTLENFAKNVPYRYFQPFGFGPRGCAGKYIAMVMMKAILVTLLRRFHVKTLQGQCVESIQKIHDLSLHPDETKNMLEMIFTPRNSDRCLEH

[2] = target: T2, oestrone sulphatase (E1-STS) (Homo sapiens, UniProt P08842); assay: Oestrone sulphatase (E1-STS) inhibition in intact MCF-7 breast cancer cells; assay type: cell-based
T2 construct: endogenous in cells; host or cells: MCF-7 breast cancer cells
T2 sequence (P08842 22-583): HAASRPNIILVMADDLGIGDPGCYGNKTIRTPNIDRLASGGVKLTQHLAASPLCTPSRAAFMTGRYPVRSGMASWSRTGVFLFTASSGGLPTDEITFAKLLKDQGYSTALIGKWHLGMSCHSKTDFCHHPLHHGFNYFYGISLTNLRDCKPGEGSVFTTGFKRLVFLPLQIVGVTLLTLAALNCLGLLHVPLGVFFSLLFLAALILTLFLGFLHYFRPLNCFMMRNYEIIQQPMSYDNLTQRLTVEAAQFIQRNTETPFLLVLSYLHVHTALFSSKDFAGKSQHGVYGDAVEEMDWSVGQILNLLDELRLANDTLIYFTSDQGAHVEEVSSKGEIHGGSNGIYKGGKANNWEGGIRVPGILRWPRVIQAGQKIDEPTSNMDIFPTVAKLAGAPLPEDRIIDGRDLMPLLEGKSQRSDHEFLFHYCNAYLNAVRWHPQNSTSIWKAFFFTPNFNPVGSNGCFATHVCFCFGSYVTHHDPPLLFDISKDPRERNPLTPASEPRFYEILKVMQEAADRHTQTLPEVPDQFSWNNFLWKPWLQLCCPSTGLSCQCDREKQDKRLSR

[3] = target: T3, oestrone sulphatase (Homo sapiens, UniProt P08842); assay: Oestrone sulphatase inhibition in placental microsomes; assay type: biochemical; conditions: compared with 19
T3 construct: from tissue; host or cells: placenta (microsomes, 100,000 g)
T3 sequence (P08842 22-583): T2 sequence (P08842 22-583)

[4] = target: T4, oestrone sulphatase (Rattus norvegicus, UniProt P15589); assay: In vivo inhibition of oestrone sulphatase activity in rat liver; conditions: 24 hours after single oral dose in propylene glycol; for % Inhibition of oestrone sulphatase in vivo: 10 mg/Kg
T4 construct: from tissue; host or cells: rat liver
T4 sequence (P15589 20-577): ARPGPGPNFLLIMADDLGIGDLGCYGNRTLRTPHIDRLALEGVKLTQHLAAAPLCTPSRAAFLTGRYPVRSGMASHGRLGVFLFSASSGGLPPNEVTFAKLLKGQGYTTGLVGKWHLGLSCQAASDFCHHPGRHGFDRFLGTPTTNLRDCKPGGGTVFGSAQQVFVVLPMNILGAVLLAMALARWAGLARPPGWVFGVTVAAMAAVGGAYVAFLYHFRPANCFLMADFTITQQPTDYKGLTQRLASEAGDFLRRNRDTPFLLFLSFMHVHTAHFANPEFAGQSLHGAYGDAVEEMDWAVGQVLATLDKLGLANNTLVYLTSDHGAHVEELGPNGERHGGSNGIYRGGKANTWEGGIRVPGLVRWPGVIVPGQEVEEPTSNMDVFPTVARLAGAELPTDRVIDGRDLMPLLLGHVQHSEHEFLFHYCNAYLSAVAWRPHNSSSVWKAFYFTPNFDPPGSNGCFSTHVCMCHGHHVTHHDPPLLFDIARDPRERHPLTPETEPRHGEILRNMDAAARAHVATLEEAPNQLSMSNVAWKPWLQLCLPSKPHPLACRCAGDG
Method: FIG. 11 presents in vivo inhibition of oestrone sulphatase activity in rat liver for two isoflavones according to the present invention. […] Compounds were administered as a single 10 mg/Kg dose. Oestrone sulphatase activity was assayed in tissue samples obtained 24 h after drug administration.

Row | inhibition of E1-STS activity in MCF-7 cells (in words) [2] | % Inhibition of sulphatase activity in MCF-7 cells ([2]; 0.1 μM) | % Inhibition of sulphatase activity in MCF-7 cells ([2]; 1 μM) | % Inhibition of sulphatase activity in MCF-7 cells ([2]; 10 μM) | inhibition of E1-STS activity in placental microsomes (in words) [3] | Structure (SMILES) | % Inhibition of aromatase activity in placental microsomes at 10 μM [1] | % Inhibition of oestrone sulphatase in vivo [4] [%] | inhibition at 1 mg/kg ([4]; 1 mg/Kg) [%]
1 | less potent | >99% | >99% | >99% | less potent | NS(=O)(=O)Oc1ccc(C2COc3cc(OS(N)(=O)=O)ccc3C2)cc1 (racemic) [Compound 22, (±) Isoflavane-7,4′-O,O-bisulphamate] | 13% |  | 
2 |  | 0.30 ± 0.2% | 1.8 ± 1.0% | 4.9 ± 0.3% |  | NS(=O)(=O)Oc1ccc2c(=O)cc(-c3ccccc3)oc2c1 [Compound 1, Flavone-7-O-sulphamate] |  |  | 
3 |  |  | 99.1 ± 0.6% | 98.9 ± 1.3% |  | NS(=O)(=O)Oc1ccc2oc(-c3ccccc3)cc(=O)c2c1 [Compound 2, Flavone-6-O-sulphamate] |  |  | 
4 |  | 11 ± 2.7% | 51 ± 3.0% | 78 ± 1.7% |  | COc1cc2oc(-c3ccccc3)cc(=O)c2c(O)c1OS(N)(=O)=O [Compound 4, 5-Hydroxy-7-methoxy flavone-6-O-sulphamate] |  |  | 
5 |  | 35 ± 4.0% | 88 ± 3.1% | 99 ± 0.6% |  | COc1cc(O)c2c(=O)cc(-c3ccc(OS(N)(=O)=O)cc3)oc2c1 [Compound 5, 5-Hydroxy-7-methoxy-flavone-4′-O-sulphamate] |  |  | 
6 |  | * (*Inactive) | 18 ± 6.1% | 27 ± 3.5% |  | COc1ccc(-c2cc(=O)c3c(O)c(OC)c(OC)cc3o2)cc1OS(N)(=O)=O [Compound 6, 5-Hydroxy 4′,6,7-Trimethoxy flavone-3′-O-sulphamate] |  |  | 
7 |  | 29 ± 0.8% | 23 ± 1.8% | 12 ± 0.5% |  | COc1ccc(-c2cc(=O)c3c(OC)c(OC)c(OC)cc3o2)cc1OS(N)(=O)=O [Compound 7, 4′,5,6,7-Tetramethoxy flavone-3′-O-sulphamate] |  |  | 
8 |  | * (*Inactive) | 13 ± 8.0% | 29 ± 1.3% |  | NS(=O)(=O)Oc1ccc(-c2cc(=O)c3ccccc3o2)cc1OS(N)(=O)=O [Compound 8, Flavone-3′,4′-O,O-bisulphamate] |  |  | 
9 |  | 8 ± 2.6% | 79 ± 0.8% | 98 ± 0.4% |  | NS(=O)(=O)Oc1ccc(-c2cc(=O)c3c(O)cc(OS(N)(=O)=O)cc3o2)cc1 [Compound 9, 5-Hydroxy flavone-4′,7-O,O-bisulphamate] |  |  | 
10 |  | * (*Inactive) | 8 ± 6.4% | 12 ± 7.5% |  | NS(=O)(=O)Oc1cc(O)c2c(=O)c(OS(N)(=O)=O)c(-c3ccccc3)oc2c1 [Compound 10, 5-Hydroxy flavone-3,7-O,O-bisulphamate] |  |  | 
11 |  | * (*Inactive) | * (*Inactive) | * (*Inactive) |  | COc1ccc(-c2oc3cc(OS(N)(=O)=O)cc(O)c3c(=O)c2OS(N)(=O)=O)cc1 [Compound 11, 5-Hydroxy-4′-methoxy flavone-3,7-O,O-bisulphamate] |  |  | 
12 |  | * (*Inactive) | * (*Inactive) | * (*Inactive) |  | COc1cc(-c2oc3cc(OS(N)(=O)=O)cc(O)c3c(=O)c2OS(N)(=O)=O)cc(OC)c1OC [Compound 12, 5-Hydroxy-3′,4′,5′-Trimethoxy flavone-3,7-O,O-bisulphamate] |  |  | 
13 |  | * (*Inactive) | * (*Inactive) | * (*Inactive) |  | COc1cc(-c2oc3cc(O)cc(O)c3c(=O)c2OS(N)(=O)=O)cc(OC)c1OC [Compound 13, 5,7-Dihydroxy-3′,4′,5′-Trimethoxy flavone-3-O-sulphamate] |  |  | 
14 |  | * (*Inactive) | * (*Inactive) | * (*Inactive) |  | COc1cc(-c2oc3cc(OS(N)(=O)=O)ccc3c(=O)c2OS(N)(=O)=O)cc(OC)c1OC [Compound 14, 3′,4′,5′-Trimethoxy flavone-3,7-O,O-bisulphamate] |  |  | 
15 |  | * (*Inactive) | * (*Inactive) | * (*Inactive) |  | COc1cc(-c2oc3cc(O)ccc3c(=O)c2OS(N)(=O)=O)cc(OC)c1OC [Compound 15, 7-Hydroxy 3′,4′,5′-Trimethoxy flavone-3-O-sulphamate] |  |  | 
16 |  |  |  |  |  | NS(=O)(=O)Oc1ccc(-c2coc3cc(OS(N)(=O)=O)ccc3c2=O)cc1 [Compound 19, Isoflavone-4′,7-O,O-bisulphamate] | * (*Inactive) | 71.4 ± 2.9 | 
17 |  | 2 ± 1.3% | 8 ± 0.6% | 9 ± 1.2% |  | COc1ccc(C2CC(=O)c3c(O)cc(OS(N)(=O)=O)cc3O2)cc1OS(N)(=O)=O (stereo not drawn) [Compound 21, 5-Hydroxy 4′-methoxy flavanone-3′,7-O,O-bisulphamate] |  |  | 
18 |  |  |  |  |  | C[C@]12CC[C@@H]3c4ccc(OS(N)(=O)=O)cc4CC[C@H]3[C@@H]1CCC2=O [EMATE, oestrone-3-sulphamate, reference compound] |  |  | > 99

Row | Structure (SMILES) | inhibition of E1-STS activity in MCF-7 cells (in words) [2] | % Inhibition of sulphatase activity in MCF-7 cells ([2]; 0.1 μM) | % Inhibition of sulphatase activity in MCF-7 cells ([2]; 1 μM) | % Inhibition of sulphatase activity in MCF-7 cells ([2]; 10 μM) | inhibition of E1-STS activity in placental microsomes (in words) [3] | % Inhibition of aromatase activity in placental microsomes at 10 μM [1] | % Inhibition of oestrone sulphatase in vivo [4] [%] | inhibition at 1 mg/kg ([4]; 1 mg/Kg) [%]
19 | COc1ccc(-c2coc3cc(OS(N)(=O)=O)cc(O)c3c2=O)cc1 [Compound 16, 5-Hydroxy-4′-methoxyisoflavone 7-O-sulphamate] |  | * (*Inactive) | 11 ± 3.0% | 37 ± 1.7% |  | * (*Inactive) |  | 
20 | NS(=O)(=O)Oc1ccc(-c2coc3cc(OS(N)(=O)=O)cc(O)c3c2=O)cc1 [Compound 17, 5-Hydroxy isoflavone-4′,7-O,O-bisulphamate] |  | 22–87% and 28 ± 1.7% | 79–99% |  |  | * (*Inactive) | 81.4 ± 3.2 | 
21 | NS(=O)(=O)Oc1ccc(-c2coc3cc(O)cc(O)c3c2=O)cc1 [Compound 18, 5,7-Dihydroxy isoflavone-4′-O-sulphamate] |  | 23 ± 2.2% | 83 ± 2.7% | 99 ± 0.7% |  | * (*Inactive) | 62.0 ± 4.7 | 
